In patent publication US4041032A, “Pyrazine derivatives” (priority 1974, dated 1977):
Where two headings read alike, the source gives them in different places.

Assays:
[1] = test system: emesis induced by apomorphine; assay: Antiemetic activity, subcutaneous (apomorphine-induced emesis); format: in vivo, dog; settings: for ED50: Canis lupus familiaris, sc, read-out: Antiemetic activity ED50 (s.c); for Antiemetic activity ED50 (s.c): Table II
Method: Each of the test samples was administered to a dog by subcutaneous injection; then 0.1 mg./kg. of apomorphine was administered to a dog by subcutaneous injection after 30 minutes, and the frequency of emesis within 30 minutes after the injection was measured. (Each dog was used only once). From the frequency of emesis, the inhibition rate was calculated and from the relation between the amount of the sample used and the inhibition rate, ED50 (μg/kg.) was determined. Drug activity was assessed by ED50 values.
1. Subcutaneous administration:
Same as Experiment (I-a).

[2] = test system: emesis induced by apomorphine; assay: Antiemetic activity, oral (apomorphine-induced emesis); format: in vivo, dog; settings: for ED50: Canis lupus familiaris, po, dog, p.o. in capsules with lactose, 90 min before apomorphine 0.1 mg/kg s.c., Table II; for Activity efficiency (ED50 p.o/ED50 s.c): antiemetic ED50, dog
Method: 2. Oral administration: Each of the test samples was mixed with lactose and was filled in capsules. The capsules were orally administered to a dog, 0.1 mg./kg. of apomorphine was administered to the dog by subcutaneous injection after 90 minutes, and then the frequency of emesis was measured within 30 minutes after the apomorphine injection. (Each dog was used only once.) The drugs were evaluated by ED50 values in the same way as described in Experiment I-a.

[3] = Cataleptic activity (Courvoisier's method); settings: in vivo, sc, rat
Method: According to the Courvoisier's method (Courvoisier, S, Durcot, R. & Jolou, L, (1957), Psychotropic drugs (Ed. Garattini, S and Ghetti, V.), p. 373, Else vier Publishing Company, Amsterdam, London, New York, Princeton), the four limbs of a rat were placed on four rubber stoppers and when the rat could maintain the same pose for 30 seconds, the rat was determined to be positive. The catalepsy was measured every 30 minutes till 240 minutes after the subcutaneous administration of the sample. The sample that produced a positive response in rat even once was determined to be positive in the cataleptic test. From the relation between the positive response and the amount of the sample, ED50 (mg/kg) was determined.

in vivo = settings: for selectivity ratio: LD50 mouse i.v. / antiemetic ED50 dog s.c., x 1/1000, Table I, read-out: Safety margin (LD50/ED50); for LD50 at 168 h: iv, mouse, i.v. tail injection, mortality after one week, Table I, read-out: Toxicity LD50
Method: Each of the test samples was injected intravenously to a mouse in the tail portion at a rate of 0.1 ml./10 g./10 sec. by an up and down method. The mortality rate after one week was checked and from the relation between the amount of the sample used and the mortality rate, LD50 (mg/kg) was determined.

[4] = test system: spontaneous motility of the stomach; assay: Effect of stimulating gastric motility (ballon method); format: in vivo; settings: anesthetized dog, i.v.; Table III
Method: After anesthetizing a dog which had fasted overnight by intravenously injecting 30 mg./kg. of pentobarbital, each of the test samples was injected intravenously and then the spontaneous motility of the stomach was recorded by means of a polygraph (RM-150, made by Nihon Koden K. K.) according to the ballon method (Jap. J. Smooth Muscle Res., 2, 15(1966)). In addition, the effect of stimulating the gastric motility was denoted as (+) and (++) respectively when 10 mg./kg. and 5 mg./kg. each of the sample was intervenously injected and the stimulated motility of the stomach continued longer than 20 minutes.

gastric motility = settings: in vivo; cited from earlier work
catalepsy = settings: in vivo; cited from earlier work
emesis = settings: in vivo; cited from earlier work
[5] = dog, s.c., 30 min before apomorphine 0.1 mg/kg s.c., Table I
[6] = s.c., every 30 min till 240 min, symbol of Table II, read-out: Catalepsy ED50 (not measurable, symbol)
[7] = dog, s.c., 30 min before apomorphine 0.1 mg/kg s.c.

Row | SMILES | ED50 [1, 5] [mg/kg] | ED50 [2] [mg/kg] | Activity efficiency (ED50 p.o/ED50 s.c) [2] | ED50 at 4 h [3, 6] [mg/kg] | selectivity ratio (in vivo) | LD50 at 168 h (in vivo) [mg/kg] | Antiemetic activity ED50 (s.c) [1, 7] [mg/kg] | Effect of stimulating gastric motility [4] | ED50 [1] [mg/kg] | ED50 at 4 h ([3]; s.c., every 30 min till 240 min, Table II, read-out: Catalepsy ED50) [mg/kg] | Effect on gastric motility, literature (gastric motility) | ED50 at 4 h [3] [mg/kg] | Catalepsy, literature (catalepsy) | Antiemetic activity, literature (emesis)
1 | CCN1CCCC1CNC(=O)c1nc(Cl)c(N)nc1OC (centres unmarked) [N-(1-ethylpyrrolidin-2-ylmethyl)-5-amino-6-chloro-3-methoxypyrazine-2-carboxamide] | 0.002 | 0.004 | 2.0 | > 100 | 45700 | 91.3 |  |  |  |  |  |  |  | 
2 | CCN1CCCC1CNC(=O)c1nc(Cl)cnc1OC (centres unmarked) [N-(1-ethylpyrrolidin-2-ylmethyl)-5-chloro-2-methoxypyrazine-3-carboxamide] | 0.02 |  |  |  | 8500 | 170 |  |  |  |  |  |  |  | 
3 | CCNc1nc(OC)c(C(=O)NCC2CCCN2CC)nc1Cl (centres unmarked) [N-(1-ethylpyrrolidin-2-ylmethyl)-6-chloro-5-ethylamino-3-methoxypyrazine-2-carboxamide] | 0.0026 | 0.006 | 2.3 | > 100 | 23500 | 61.1 | 0.0026 |  |  |  |  |  |  | 
4 | CCNc1nc(OC)c(C(=O)NCC2CCCN2C)nc1Cl (centres unmarked) [N-(1-methylpyrrolidin-2-ylmethyl)-6-chloro-5-ethylamino-3-methoxypyrazine-2-carboxamide] | 0.003 |  |  |  | 15000 | 45 |  |  |  |  |  |  |  | 
5 | CCOc1nc(N)c(Cl)nc1C(=O)NCCN(CC)CC [N-(2-diethylaminoethyl)-5-amino-6-chloro-3-ethoxypyrazine-2-carboxamide] | 0.012 |  |  |  | 6010 | 72.1 |  |  |  |  |  |  |  | 
6 | CCN(CC)CCNC(=O)c1nc(Cl)c(N)nc1OC [N-(2-diethylaminoethyl)-5-amino-6-chloro-3-methoxypyrazine-2-carboxamide] | 0.012 | 0.07 | 5.8 | > 100 | 12500 | 150 | 0.012 |  |  |  |  |  |  | 
7 | CCN(CC)CCNC(=O)c1nc(Cl)c(Nc2ccccc2)nc1OC [N-(2-diethylaminoethyl)-5-anilino-6-chloro-3-methoxypyrazine-2-carboxamide] |  |  |  |  |  |  |  | + to ++ |  |  |  |  |  | 
8 | CCN(CC)CCNC(=O)c1nc(Cl)c(NC)nc1OC [N-(2-diethylaminoethyl)-6-chloro-3-methoxy-5-methylaminopyrazine-2-carboxamide] | 0.01 |  |  |  | 9100 | 91 |  |  |  |  |  |  |  | 
9 | CCNc1nc(OC)c(C(=O)NCCN(CC)CC)nc1Cl [N-(2-diethylaminoethyl)-6-chloro-5-ethylamino-3-methoxypyrazine-2-carboxamide] | 0.02 | 0.065 | 3.3 | > 100 | 4550 | 91 | 0.02 | + to ++ |  |  |  |  |  | 
10 | CN(C)CCCN1c2ccccc2Sc2ccc(Cl)cc21 [chlorpromazine, reference compound] |  | 2 | 8.0 |  | 290 | 71.4 | 0.25 |  | 0.25 | 7 |  |  |  | 
11 | CCN(CC)CCNC(=O)c1cc(Cl)c(N)cc1OC [metoclopramide, N-(diethylaminoethyl)-4-amino-5-chloro-2-methoxybenzamide, reference compound] | 0.03 | 0.13 |  |  |  | 61 | 0.03 |  |  |  | effect of stimulating gastric motility | 45 | produces catalepsy as a side effect | stronger antiemetic activity than chlorpromazine
